Results published in PubChem BioAssay (NCI).
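Interpolation was linear, between the two tested concentrations surrounding the appropriate level; five concentrations were tested over 48 hours in 96-well plates. GI50: concentration for 50% inhibition of growth. TGI denotes the concentration required for complete inhibition of growth.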

Experiments:
Experiment in all cases: NCI anticancer screen, dose series, 48 h
[1] = tested on: K-562 leukemia
[2] = tested on: SNB-75 CNS
[3] = tested on: KM12 colon
[4] = tested on: ACHN renal
[5] = tested on: RXF 393 renal
[6] = tested on: UACC-62 melanoma
[7] = tested on: SF-539 CNS
[8] = tested on: SNB-19 CNS
[9] = tested on: OVCAR-8 ovarian
[10] = tested on: M14 melanoma
[11] = tested on: SK-MEL-28 melanoma
[12] = tested on: TK-10 renal
[13] = tested on: NCI-H460 lung
[14] = tested on: OVCAR-3 ovarian
[15] = tested on: HL-60(TB) leukemia
[16] = tested on: SF-295 CNS
[17] = tested on: SF-268 CNS
[18] = tested on: NCI-H23 lung
[19] = tested on: LOX IMVI melanoma
[20] = tested on: NCI/ADR-RES ovarian
[21] = tested on: SK-MEL-2 melanoma
[22] = tested on: UACC-257 melanoma
[23] = tested on: HCC-2998 colon
[24] = tested on: T-47D breast
[25] = tested on: IGROV1 ovarian
[26] = tested on: SW-620 colon
[27] = tested on: HCT-116 colon
[28] = tested on: SK-OV-3 ovarian
[29] = tested on: MCF7 breast
[30] = tested on: OVCAR-5 ovarian
[31] = tested on: HOP-92 NSCLC
[32] = tested on: CCRF-CEM leukemia
[33] = tested on: NCI-H226 lung
[34] = tested on: MOLT-4 leukemia
[35] = tested on: SR leukemia
[36] = tested on: A498 renal
[37] = tested on: SK-MEL-5 melanoma
[38] = tested on: HCT-15 colon
[39] = tested on: HS 578T breast
[40] = tested on: CAKI-1 renal
[41] = tested on: UO-31 renal
[42] = tested on: RPMI-8226 leukemia
[43] = tested on: MDA-MB-231 breast
[44] = tested on: A549 NSCLC
[45] = tested on: MALME-3M melanoma
[46] = tested on: 786-0 renal
[47] = tested on: HOP-62 NSCLC
[48] = tested on: COLO 205 colon
[49] = tested on: PC-3 prostate
[50] = tested on: NCI-H522 lung
[51] = tested on: DU-145 prostate
[52] = tested on: SN12C renal
[53] = tested on: MDA-MB-435
[54] = tested on: BT-549 breast

Question: What does the source list for `Cc1nc2ccc(Nc3nc(Cl)nc(Nc4ccc(F)cc4)n3)cc2n1Cc1ccccc1`?
Answer: GI50 [1]: 3.43 µM; TGI [1]: > 100 µM; GI50 [2]: 10.2 µM; TGI [2]: 26.2 µM; GI50 [3]: 4.25 µM; TGI [3]: 17.6 µM; GI50 [4]: 3 µM; TGI [4]: 10.4 µM; GI50 [5]: 4.45 µM; TGI [5]: 21.5 µM; GI50 [6]: 3.06 µM; TGI [6]: 12.9 µM; GI50 [7]: 4.53 µM; TGI [7]: 17.4 µM; GI50 [8]: 4.55 µM; TGI [8]: 26.9 µM; GI50 [9]: 3.25 µM; TGI [9]: 14.1 µM; GI50 [10]: 5.54 µM; TGI [10]: 22 µM; GI50 [11]: 3.15 µM; TGI [11]: 10.5 µM; GI50 [12]: 18.1 µM; TGI [12]: 44.4 µM; GI50 [13]: 4.23 µM; TGI [13]: 17.8 µM; GI50 [14]: 4.06 µM; TGI [14]: 15 µM; GI50 [15]: 3.02 µM; TGI [15]: 7.6 µM; GI50 [16]: 1.9 µM; TGI [16]: 4.53 µM; GI50 [17]: 10.8 µM; TGI [17]: 46.8 µM; GI50 [18]: 7.16 µM; TGI [18]: 25.2 µM; GI50 [19]: 3.59 µM; TGI [19]: 14.1 µM; GI50 [20]: 4.11 µM; TGI [20]: 18.5 µM; GI50 [21]: 4.15 µM; TGI [21]: 15 µM; GI50 [22]: 11.8 µM; TGI [22]: 28.9 µM; GI50 [23]: 2.6 µM; TGI [23]: 5.96 µM; GI50 [24]: 1.81 µM; TGI [24]: 4.58 µM; GI50 [25]: 4.4 µM; TGI [25]: 20.8 µM; GI50 [26]: 4.95 µM; TGI [26]: 35 µM; GI50 [27]: 3.56 µM; TGI [27]: 13.6 µM; GI50 [28]: 18.1 µM; TGI [28]: 66.8 µM; GI50 [29]: 2.71 µM; TGI [29]: 12.4 µM; GI50 [30]: 14.7 µM; TGI [30]: 44.1 µM; GI50 [31]: 2.3 µM; TGI [31]: 9.23 µM; GI50 [32]: 3.85 µM; TGI [32]: > 100 µM; GI50 [33]: 4.14 µM; TGI [33]: 21.6 µM; GI50 [34]: 3.92 µM; TGI [34]: 18.1 µM; GI50 [35]: 3.79 µM; TGI [35]: 39.5 µM; GI50 [36]: 13.2 µM; TGI [36]: 41 µM; GI50 [37]: 4.19 µM; TGI [37]: 15.1 µM; GI50 [38]: 2.92 µM; TGI [38]: 10.4 µM; GI50 [39]: 10.9 µM; TGI [39]: > 100 µM; GI50 [40]: 7.94 µM; TGI [40]: 35.2 µM; GI50 [41]: 2.85 µM; TGI [41]: 12.2 µM; GI50 [42]: 2.05 µM; TGI [42]: 5.09 µM; GI50 [43]: 3.99 µM; TGI [43]: 20.4 µM; GI50 [44]: 11.3 µM; TGI [44]: 30.9 µM; GI50 [45]: 11.4 µM; TGI [45]: 24.6 µM; GI50 [46]: 5.18 µM; TGI [46]: 37 µM; GI50 [47]: 10.7 µM; TGI [47]: 30.4 µM; GI50 [48]: 11.2 µM; TGI [48]: 26.5 µM; GI50 [49]: 7.11 µM; TGI [49]: 32.9 µM; GI50 [50]: 2.51 µM; TGI [50]: 6.85 µM; GI50 [51]: 9.44 µM; TGI [51]: 22.6 µM; GI50 [52]: 5.22 µM; TGI [52]: 38.3 µM; GI50 [53]: 6.4 µM; TGI [53]: 23.1 µM; GI50 [54]: 4 µM; TGI [54]: 18.8 µM
